In PubChem BioAssay (NCI):
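Assay format: 96-well plates, 48-hour exposure. TGI denotes the concentration required for complete inhibition of growth.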

Key:
Assay in all cases: NCI anticancer screen, dose series, 48 h
SK-OV-3 ovarian = tested on: SK-OV-3 ovarian
ACHN renal = tested on: ACHN renal
NCI/ADR-RES ovarian = tested on: NCI/ADR-RES ovarian
SF-539 CNS = tested on: SF-539 CNS
UACC-62 melanoma = tested on: UACC-62 melanoma
RPMI-8226 leukemia = tested on: RPMI-8226 leukemia
MOLT-4 leukemia = tested on: MOLT-4 leukemia
RXF 393 renal = tested on: RXF 393 renal
OVCAR-4 ovarian = tested on: OVCAR-4 ovarian
HOP-92 NSCLC = tested on: HOP-92 NSCLC
T-47D breast = tested on: T-47D breast
SNB-75 CNS = tested on: SNB-75 CNS
UACC-257 melanoma = tested on: UACC-257 melanoma
OVCAR-5 ovarian = tested on: OVCAR-5 ovarian
HCC-2998 colon = tested on: HCC-2998 colon
K-562 leukemia = tested on: K-562 leukemia
EKVX NSCLC = tested on: EKVX NSCLC
A549 NSCLC = tested on: A549 NSCLC
MCF7 breast = tested on: MCF7 breast
LOX IMVI melanoma = tested on: LOX IMVI melanoma
COLO 205 colon = tested on: COLO 205 colon
DU-145 prostate = tested on: DU-145 prostate
SK-MEL-28 melanoma = tested on: SK-MEL-28 melanoma
UO-31 renal = tested on: UO-31 renal
NCI-H522 lung = tested on: NCI-H522 lung
HCT-116 colon = tested on: HCT-116 colon
PC-3 prostate = tested on: PC-3 prostate
OVCAR-8 ovarian = tested on: OVCAR-8 ovarian
SNB-19 CNS = tested on: SNB-19 CNS
NCI-H226 lung = tested on: NCI-H226 lung
NCI-H23 lung = tested on: NCI-H23 lung
KM12 colon = tested on: KM12 colon
M14 melanoma = tested on: M14 melanoma
SW-620 colon = tested on: SW-620 colon
MDA-MB-435 = tested on: MDA-MB-435
SF-295 CNS = tested on: SF-295 CNS
SF-268 CNS = tested on: SF-268 CNS
MALME-3M melanoma = tested on: MALME-3M melanoma
CCRF-CEM leukemia = tested on: CCRF-CEM leukemia
TK-10 renal = tested on: TK-10 renal
SK-MEL-5 melanoma = tested on: SK-MEL-5 melanoma
HCT-15 colon = tested on: HCT-15 colon
HOP-62 NSCLC = tested on: HOP-62 NSCLC
MDA-N = tested on: MDA-N
786-0 renal = tested on: 786-0 renal
NCI-H460 lung = tested on: NCI-H460 lung
MDA-MB-231 breast = tested on: MDA-MB-231 breast
SR leukemia = tested on: SR leukemia
OVCAR-3 ovarian = tested on: OVCAR-3 ovarian
CAKI-1 renal = tested on: CAKI-1 renal
A498 renal = tested on: A498 renal
U251 CNS = tested on: U251 CNS
HL-60(TB) leukemia = tested on: HL-60(TB) leukemia
HT29 colon = tested on: HT29 colon
IGROV1 ovarian = tested on: IGROV1 ovarian
BT-549 breast = tested on: BT-549 breast
HS 578T breast = tested on: HS 578T breast
SN12C renal = tested on: SN12C renal
SK-MEL-2 melanoma = tested on: SK-MEL-2 melanoma
M19-MEL melanoma = tested on: M19-MEL melanoma
LXFL 529 NSCLC = tested on: LXFL 529 NSCLC
DMS 273 small cell lung = tested on: DMS 273 small cell lung
DLD-1 colon = tested on: DLD-1 colon
KM20L2 colon = tested on: KM20L2 colon
SNB-78 CNS = tested on: SNB-78 CNS
HOP-18 NSCLC = tested on: HOP-18 NSCLC

Q: O=C(Nn1cc(F)c(=O)[nH]c1=O)C12CC3CC(CC(C3)C1)C2 was tested. Which TGI (SK-OV-3 ovarian) did it give?
A: 77.5 µM

Q: What about the TGI (ACHN renal) of the same compound?
A: 63.8 µM

Q: And the TGI (NCI/ADR-RES ovarian)?
A: > 100 µM

Q: And the TGI (SF-539 CNS)?
A: 16.3 µM

Q: And the TGI (UACC-62 melanoma)?
A: 24.4 µM

Q: And the TGI (RPMI-8226 leukemia)?
A: 42.5 µM

Q: And the TGI (MOLT-4 leukemia)?
A: 47.9 µM

Q: What about the TGI (RXF 393 renal) of the same compound?
A: 57.8 µM

Q: And the TGI (OVCAR-4 ovarian)?
A: > 66.2 µM

Q: What about the TGI (HOP-92 NSCLC) of the same compound?
A: 42.6 µM

Q: And the TGI (T-47D breast)?
A: > 80.2 µM

Q: What about the TGI (SNB-75 CNS) of the same compound?
A: 80.1 µM

Q: And the TGI (UACC-257 melanoma)?
A: > 100 µM

Q: And the TGI (OVCAR-5 ovarian)?
A: > 95.1 µM

Q: And the TGI (HCC-2998 colon)?
A: 18.4 µM

Q: What about the TGI (K-562 leukemia) of the same compound?
A: > 75.9 µM

Q: What about the TGI (EKVX NSCLC) of the same compound?
A: > 89.1 µM

Q: What about the TGI (A549 NSCLC) of the same compound?
A: > 100 µM

Q: And the TGI (MCF7 breast)?
A: > 100 µM

Q: What about the TGI (LOX IMVI melanoma) of the same compound?
A: 27.8 µM

Q: What about the TGI (COLO 205 colon) of the same compound?
A: 23.5 µM

Q: What about the TGI (DU-145 prostate) of the same compound?
A: > 100 µM

Q: And the TGI (SK-MEL-28 melanoma)?
A: > 86.6 µM

Q: And the TGI (UO-31 renal)?
A: 54.4 µM

Q: And the TGI (NCI-H522 lung)?
A: 44.5 µM

Q: What about the TGI (HCT-116 colon) of the same compound?
A: 24.9 µM

Q: And the TGI (PC-3 prostate)?
A: 45.5 µM

Q: What about the TGI (OVCAR-8 ovarian) of the same compound?
A: > 100 µM

Q: What about the TGI (SNB-19 CNS) of the same compound?
A: > 100 µM

Q: And the TGI (NCI-H226 lung)?
A: > 100 µM

Q: What about the TGI (NCI-H23 lung) of the same compound?
A: 53 µM

Q: What about the TGI (KM12 colon) of the same compound?
A: 49.1 µM

Q: What about the TGI (M14 melanoma) of the same compound?
A: > 72.6 µM

Q: And the TGI (SW-620 colon)?
A: > 96.4 µM

Q: What about the TGI (MDA-MB-435) of the same compound?
A: > 56 µM

Q: What about the TGI (SF-295 CNS) of the same compound?
A: > 100 µM

Q: What about the TGI (SF-268 CNS) of the same compound?
A: 98.2 µM

Q: What about the TGI (MALME-3M melanoma) of the same compound?
A: 32.2 µM

Q: What about the TGI (CCRF-CEM leukemia) of the same compound?
A: 45 µM

Q: What about the TGI (TK-10 renal) of the same compound?
A: > 86.8 µM

Q: What about the TGI (SK-MEL-5 melanoma) of the same compound?
A: 12.2 µM

Q: What about the TGI (HCT-15 colon) of the same compound?
A: 25.6 µM

Q: And the TGI (HOP-62 NSCLC)?
A: 51.8 µM

Q: What about the TGI (MDA-N) of the same compound?
A: > 57 µM

Q: What about the TGI (786-0 renal) of the same compound?
A: > 100 µM

Q: And the TGI (NCI-H460 lung)?
A: 19.7 µM

Q: What about the TGI (MDA-MB-231 breast) of the same compound?
A: 37 µM

Q: What about the TGI (SR leukemia) of the same compound?
A: 26.8 µM

Q: What about the TGI (OVCAR-3 ovarian) of the same compound?
A: 35.1 µM

Q: And the TGI (CAKI-1 renal)?
A: 32.7 µM

Q: And the TGI (A498 renal)?
A: > 81.2 µM

Q: And the TGI (U251 CNS)?
A: > 72 µM

Q: And the TGI (HL-60(TB) leukemia)?
A: 54.3 µM

Q: And the TGI (HT29 colon)?
A: 37.1 µM

Q: And the TGI (IGROV1 ovarian)?
A: 27.5 µM

Q: And the TGI (BT-549 breast)?
A: 79.3 µM

Q: And the TGI (HS 578T breast)?
A: > 81.2 µM

Q: What about the TGI (SN12C renal) of the same compound?
A: > 100 µM

Q: And the TGI (SK-MEL-2 melanoma)?
A: 63.3 µM

Q: For CC[C@]1(O)CC2CN(CCCc3c([nH]c4ccccc34)[C@@](C(=O)OC)(c3cc4c(cc3OC)N(C)C3C45CCN4CC=C[C@](CC)(C45)C(OC(C)=O)[C@@]3(O)C(=O)OC)C2)C1 (some centres undefined), which TGI (SK-OV-3 ovarian) is on record?
A: > 7.95 µM

Q: And the TGI (ACHN renal)?
A: > 10 µM

Q: What about the TGI (SF-539 CNS) of the same compound?
A: 6.03 µM

Q: What about the TGI (UACC-62 melanoma) of the same compound?
A: > 10 µM

Q: And the TGI (RPMI-8226 leukemia)?
A: > 8.84 µM

Q: What about the TGI (MOLT-4 leukemia) of the same compound?
A: > 10 µM

Q: What about the TGI (RXF 393 renal) of the same compound?
A: 4.41 µM

Q: And the TGI (M19-MEL melanoma)?
A: > 10 µM

Q: And the TGI (OVCAR-4 ovarian)?
A: > 10 µM

Q: And the TGI (HOP-92 NSCLC)?
A: > 10 µM

Q: And the TGI (SNB-75 CNS)?
A: 5.7 µM

Q: And the TGI (UACC-257 melanoma)?
A: > 10 µM

Q: And the TGI (OVCAR-5 ovarian)?
A: > 10 µM

Q: What about the TGI (HCC-2998 colon) of the same compound?
A: 8.2 µM

Q: And the TGI (LXFL 529 NSCLC)?
A: > 10 µM

Q: What about the TGI (K-562 leukemia) of the same compound?
A: > 10 µM

Q: What about the TGI (EKVX NSCLC) of the same compound?
A: > 8.04 µM

Q: What about the TGI (DMS 273 small cell lung) of the same compound?
A: > 10 µM

Q: And the TGI (A549 NSCLC)?
A: > 10 µM

Q: What about the TGI (LOX IMVI melanoma) of the same compound?
A: > 10 µM

Q: And the TGI (COLO 205 colon)?
A: > 7.86 µM

Q: What about the TGI (SK-MEL-28 melanoma) of the same compound?
A: > 10 µM

Q: What about the TGI (UO-31 renal) of the same compound?
A: > 10 µM

Q: What about the TGI (NCI-H522 lung) of the same compound?
A: 0.393 µM

Q: And the TGI (HCT-116 colon)?
A: > 10 µM

Q: And the TGI (OVCAR-8 ovarian)?
A: > 10 µM

Q: What about the TGI (SNB-19 CNS) of the same compound?
A: 9.83 µM

Q: And the TGI (DLD-1 colon)?
A: > 10 µM

Q: What about the TGI (NCI-H226 lung) of the same compound?
A: > 3.01 µM

Q: And the TGI (KM20L2 colon)?
A: 1.05 µM

Q: And the TGI (NCI-H23 lung)?
A: 3.77 µM

Q: What about the TGI (KM12 colon) of the same compound?
A: > 10 µM

Q: And the TGI (M14 melanoma)?
A: 4.01 µM

Q: And the TGI (SW-620 colon)?
A: > 10 µM

Q: And the TGI (SNB-78 CNS)?
A: > 3.04 µM

Q: What about the TGI (SF-295 CNS) of the same compound?
A: > 2.13 µM

Q: What about the TGI (SF-268 CNS) of the same compound?
A: > 3.13 µM

Q: And the TGI (MALME-3M melanoma)?
A: > 3.16 µM

Q: What about the TGI (CCRF-CEM leukemia) of the same compound?
A: > 10 µM

Q: And the TGI (TK-10 renal)?
A: > 10 µM

Q: And the TGI (SK-MEL-5 melanoma)?
A: > 6.15 µM

Q: And the TGI (HCT-15 colon)?
A: > 10 µM

Q: And the TGI (HOP-62 NSCLC)?
A: > 3.4 µM

Q: What about the TGI (786-0 renal) of the same compound?
A: > 10 µM

Q: What about the TGI (NCI-H460 lung) of the same compound?
A: > 10 µM

Q: And the TGI (HOP-18 NSCLC)?
A: 0.73 µM

Q: What about the TGI (OVCAR-3 ovarian) of the same compound?
A: > 2.12 µM

Q: What about the TGI (CAKI-1 renal) of the same compound?
A: > 10 µM

Q: And the TGI (A498 renal)?
A: 4.54 µM

Q: And the TGI (U251 CNS)?
A: > 10 µM

Q: And the TGI (HL-60(TB) leukemia)?
A: > 5.65 µM

Q: And the TGI (HT29 colon)?
A: > 3.44 µM

Q: And the TGI (IGROV1 ovarian)?
A: > 10 µM

Q: What about the TGI (SN12C renal) of the same compound?
A: > 10 µM

Q: And the TGI (SK-MEL-2 melanoma)?
A: > 8.05 µM
